Test results published in PMC7230731 (Marine Drugs, 2020).

Assays:
Type in all cases: cell-based, human
MCF-7 cells [1] = assay: SRB antiproliferative assay, MCF-7; conditions: for IC50: Homo sapiens, MCF7, 48 h, MCF-7 breast cancer cells, SRB assay, 48 h, mean ± S.D. of three experiments; for potency relative to Staurosporine, MCF-7: ratio of IC50 values, MCF-7 cells
Method: 1. Anti-proliferative action toward human breast cell lines […]
and non-tumorigenic human breast epithelial cell line (MCF-10A) have been obtained from American Type Culture Collection (ATCC). The cells were maintained in Dulbecco's modified Eagle's medium (DMEM) supplemented with 10% heat inactivated fetal calf serum (GIBCO), penicillin (100 U/ml) and streptomycin (100 µg/ml) at 37 °C in humidified atmosphere containing 5% CO2. […]
grown in a 25 cm2 flask in 5 ml of culture medium.
The anti-proliferative activity of the tested compounds was measured in vitro using the Sulfo-Rhodamine-B stain (SRB) assay. Briefly, Cells were inoculated in 96-well microtiter plate (5X104 cells/ well) for 24 h before treatment with the tested compounds to allow attachment of cell to the wall of the plate. Tested compounds were dissolved in DMSO at 1 mg/ml immediately before use and diluted to the appropriate volume just before addition to the cell culture. Different concentrations of tested compounds, doxorubicin and sorafenib were added to the cells (three wells were prepared for each […]
atmosphere of 5% CO2. After 48 h cells were fixed, washed, and stained for 30 min with 0.4% (w/v) SRB dissolved in 1% acetic acid. Unbound dye was removed by four washes with 1% acetic acid, and attached stain was recovered with Tris-EDTA buffer. Color intensity was measured in an ELISA reader. The relation between percent of surviving fraction and drug concentration is plotted to get the survival curve for each cell line. […]

Bax = assay: ELISA immunoassay, Bax level; conditions: MCF-7 cells; for Bax: IC50 concentration, 48 h
Text: (§1) Synchronization of the mitochondrial pathway is headed by the Bcl-2 family of proteins. These proteins are classified into two groups: anti-apoptotic proteins exemplified by Bcl-2 protein and the counteracting pro-apoptotic proteins including Bax protein [21]. As induction of the apoptotic machinery is one of the most useful strategies in cancer therapy, we investigated the effect of our compounds to boost the pro-apoptotic protein; Bax and reduce the anti-apoptotic protein; Bcl-2 in an attempt to explore the underlying mechanism for their cytotoxic activity (Table 1). […] Fortunately, both compounds markedly boosted the level of Bax by 8.3- and 6.4-fold, respectively (Table 4, Figure 3).
(§2) Effects of treatment of breast cancer MCF-7 cells with bis-indoles 7e and 9a on the expression levels of the pro-apoptotic markers (Bax, caspase-3, and p53) in addition to the anti-apoptotic protein Bcl-2 marker was assessed by the use of ELISA colorimetric kits as per the manufacturer’s instructions, as described earlier.
(§3) The levels of the pro-apoptotic markers (Bax, caspase-3 and p53) as well as the anti-apoptotic marker Bcl-2 were determined using ELISA colorimetric kits per the manufacturer’s instructions. Breast cancer MCF-7 cells were cultured as a monolayer in T-25 flasks and were seeded to attain 30% confluency prior to treatment. Cells were […]
(§4) At the end of treatment, cells were collected via trypsinization and centrifuged at 10,000 rpm. The pellet was then rinsed with PBS and lysed in RIPA lysis buffer at 4 °C for 45 min, then centrifuged at 14,000 rpm for 20 min to remove the cellular debris. Lysates were then collected and stored at −80 °C for later protein determination using Pierce BCA Protein Assay Kit according to manufacturer’s recommendations.
(§5) The cell lysate was diluted 10 times, and 100 μL ([…]) was added to the wells of four separate microtiter plates for the four ELISA kits that were pre-coated with primary antibodies specific to Bax, Bcl-2, caspase-3 and p53 proteins, respectively. A secondary biotin-linked antibody specific to the protein captured by the primary antibody was further added to bind the captured protein, forming a “sandwich” of specific antibodies around the desired protein in the cell lysate. The streptavidin-HRP complex was then used to bind the biotin-linked secondary antibody through its streptavidin portion. The HRP domain reacted with the added TMB substrate to form a colored product that measured at 450 nm by a plate reader ChroMate-4300 after the reaction was terminated via the addition of stop solution. […]
Breast […]
cancer MCF-7 cells were cultured to a monolayer then treated with bis-indoles 7e and 9a at their IC50 concentration. […]

Bcl-2 = assay: ELISA immunoassay, Bcl-2 level; conditions: MCF-7 cells; for Bcl-2: IC50 concentration, 48 h
Text: as §1, §2, §3, §4, §5

Bax/Bcl-2 = Bax/Bcl-2 ratio from ELISA; conditions: MCF-7 cells; for Bax/Bcl-2: IC50 concentration, 48 h
Text: as §1, §2, §3, §4, §5

caspase-3 = assay: ELISA immunoassay, active caspase-3 level; conditions: for increase of caspase-3 level vs control: MCF-7 cells; for Caspase-3: active caspase-3, MCF-7 cells, IC50 concentration, 48 h
Method: (§6) Moreover, their effect on the level of caspase-3; the executioner caspase and p53 was evaluated in the MCF-7 cell line. […] In addition, they augmented the level of p53 by 15.4- and 11.75-fold, respectively in comparison to the control (Table 5, Figure 3).
as §2, §3, §4, §5

p53 = assay: ELISA immunoassay, p53 level; conditions: MCF-7 cells; for p53: IC50 concentration, 48 h
Method: as §6, §2, §3, §4, §5

MCF-7 cells [2] = assay: Annexin V-FITC/PI apoptosis assay; conditions: IC50 concentration; for Total (L.R % + U.R %): early + late apoptosis
Method: Annexin V-based flow cytometry analysis is a useful tool to investigate whether cell death is pertaining to physiological apoptosis or nonspecific necrosis. Evaluation of the apoptotic effect of bis-indoles 7e and 9a was carried out using AnxV-FITC/DAPI dual staining assay (Figure 4).
The apoptotic action of bis-indoles 7e and 9a was further explored through the investigation of their effect on the phosphatidylserine externalization in breast cancer MCF-7 cells, using Annexin-V-FITC Apoptosis Detection Kit according to manufacturer’s protocol, as reported earlier. […]
4. Annexin V-FITC Apoptosis Assay
Phosphatidylserine externalization was assayed using Annexin V-FITC/PI apoptosis detection kit (BD Biosciences, USA) according to the manufacturer’s instructions. Breast cancer MCF-7 cells were cultured to a monolayer then treated with bis-indoles 7e and 9a at their IC50 concentration. Briefly, cells were then harvested via trypsinization, and rinsed twice in PBS followed by binding buffer. Moreover, cells were re-suspended in 100 μL of binding buffer with the addition of 1 μL of FITC-Annexin V followed by an incubation period of 30 min at 4 °C. Cells were then rinsed in binding buffer and resuspended in 150 μL of binding buffer with the addition of 1 μL of DAPI (1 μg/μL in PBS). Cells were then analyzed using the flow cytometer BD FACS Canto II and the results were interpreted with FlowJo7.6.4 software (Tree Star, Ashland, OR, USA).

O=C(Cc1c[nH]c2ccccc12)NN=C1C(=O)Nc2ccc([N+](=O)[O-])cc21 [Compound 7e, 2-(1H-Indol-3-yl)-N′-(5-nitro-2-oxoindolin-3-ylidene)acetohydrazide]
IC50 (MCF-7 cells [1]): 440 ± 10 nM | potency relative to Staurosporine, MCF-7 (MCF-7 cells [1]): 15.5 times | increase of Bax level vs control (Bax): 8.3 fold | Bax (Bax): 318.0 ± 10.5 pg/mg of Total Protein | decrease of Bcl-2 level vs control (Bcl-2): 2.25 fold | Bcl-2 (Bcl-2): 2.07 ± 0.14 ng/mg of Total Protein | Bax/Bcl-2 ratio augmentation vs control (Bax/Bcl-2): 18.65 fold | Bax/Bcl-2 (Bax/Bcl-2): 153.6 | increase of caspase-3 level vs control (caspase-3): 11.7 fold | Caspase-3 (caspase-3): 409.2 ± 17.2 pg/mg | increase of p53 level vs control (p53): 15.4 fold | p53 (p53): 631.8 ± 35.8 pg/mg | Early Apoptosis (Lower Right %) (MCF-7 cells [2]): 9.56% | Late Apoptosis (Upper Right %) (MCF-7 cells [2]): 21.76% | increase in total apoptosis percentage vs control (MCF-7 cells [2]): 23.7 fold | Total (L.R % + U.R %) (MCF-7 cells [2]): 31.32%

C=CCN1C(=O)C(=NNC(=O)Cc2c[nH]c3ccccc23)c2ccccc21 [Compound 9a, N′-(1-Allyl-2-oxoindolin-3-ylidene)-2-(1H-indol-3-yl)acetohydrazide]
IC50 (MCF-7 cells [1]): 1280 ± 40 nM | potency relative to Staurosporine, MCF-7 (MCF-7 cells [1]): 5.3 times | increase of Bax level vs control (Bax): 6.4 fold | Bax (Bax): 243.6 ± 12.4 pg/mg of Total Protein | decrease of Bcl-2 level vs control (Bcl-2): 1.74 fold | Bcl-2 (Bcl-2): 2.67 ± 0.16 ng/mg of Total Protein | Bax/Bcl-2 ratio augmentation vs control (Bax/Bcl-2): 11.1 fold | Bax/Bcl-2 (Bax/Bcl-2): 91.2 | increase of caspase-3 level vs control (caspase-3): 9.5 fold | Caspase-3 (caspase-3): 331.0 ± 12.5 pg/mg | increase of p53 level vs control (p53): 11.75 fold | p53 (p53): 482.3 ± 27.4 pg/mg | Early Apoptosis (Lower Right %) (MCF-7 cells [2]): 7.01% | Late Apoptosis (Upper Right %) (MCF-7 cells [2]): 15.20% | increase in total apoptosis percentage vs control (MCF-7 cells [2]): 16.8 fold | Total (L.R % + U.R %) (MCF-7 cells [2]): 22.21%
